Assay results taken from patent US8859543B2, “Imidazo[1,2-a]pyrazine derivatives and their use for the prevention or treatment of neurological, psychiatric and metabolic disorders and diseases” (Janssen Pharmaceutica NV, priority 2010, dated 2014).
pIC50: −log10 of the molar value.

Columns and labels:
[1] = tested on: conditioned avoidance response; assay: Conditioned avoidance response (CAR) test; assay type: in vivo; conditions: Rattus norvegicus
Description: Conditioned Avoidance Response (CAR) Test
The apparatus consisted of an inner box surrounded by an outer box. The inner box was composed of four walls of transparent, synthetic material (length×width×height: 30×30×30 cm), an open top, and a grid floor made of 15 pairs of iron bars (2 mm diameter; 6 mm inter-bar distance). Odd and even bars were connected with a source of alternative current (1.0 mA; Coulbourn Instruments Solid State Shocker/Distributor), which could be interrupted by a switch. The outer box was composed of the same material (length×width×height: 40×40×36 cm), also with an open top, with a distance of 5 cm between the inner and outer box on all sides. To decrease the amount of environmental stimuli, three walls of the outer box were made non-transparent. The front wall was left transparent to allow the necessary inspection of the animal during the test. The upper edge of the outer and inner box served as a target for the rats on which to jump with fore- and hind-paws, respectively.
From their arrival in the laboratory on the experimental day, male Wiga Wistar rats (230±30 g) were housed in individual cages provided with bedding material.
The rats were tested 3 times, i.e. at 60, 90 and 120 min after the injection of test compound or solvent. Latency to avoidance was recorded. The median avoidance response obtained over the three experimental sessions for each rat were used for further calculations.

PDE8A1 = PDE8A1 (Homo sapiens, UniProt O60658); assay: In vitro PDE selectivity assay, PDE8A; assay type: biochemical; conditions: Table 4a in vitro selectivity; read-out: IC50 PDE type 8A
Protocol: Rat recombinant PDE10A (rPDE10A2) was expressed in Sf9 cells using a recombinant rPDE10A baculovirus construct. Cells were harvested after 48 h of infection and the rPDE10A protein was purified by metal chelate chromatography on Ni-sepharose 6FF. […] The reaction was incubated for 60 min. at RT. […] After sedimentation of the beads during 30 min. the radioactivity was measured in a Perkin Elmer Topcount scintillation counter and results were expressed as cpm. For blank values the enzyme was omitted from the reaction and replaced by incubation buffer. […] The same assay principle is applied for the measurement of the affinity of the compound for other members of the PDE family with appropriate modifications in incubation buffer, substrate concentration, incubation time and stop solution.

[2] = tested on: apomorphine-induced stereotypy; assay: Apomorphine-induced stereotypy in rats (APO); assay type: in vivo; conditions: Rattus norvegicus, read-out: APO ED50
Protocol: Apomorphine-Induced Stereotypy in Rats (APO)
Apomorphine (1.0 mg/kg, i.v.)-induced stereotypy (compulsive sniffing, licking, chewing) was scored every 5 min. over the first hour after injection of apomorphine, following a 1 hour interval pre-treatment with the test compound. The score system was: (3) pronounced, (2) moderate, (1) slight, and (O) absent.

PDE10 = target: T1, PDE10 (Rattus norvegicus, UniProt Q9QYJ6); assay: PDE10 occupancy ([3H]-MP-10, striatum); assay type: in vivo; conditions: rat, sc; occupancy, administered s.c.; read-out: Occ. ED50
T1 construct: from tissue; host or cells: rat brain sections, striatum (ex vivo autoradiography after in vivo dosing)
T1 sequence (Q9QYJ6 1-794): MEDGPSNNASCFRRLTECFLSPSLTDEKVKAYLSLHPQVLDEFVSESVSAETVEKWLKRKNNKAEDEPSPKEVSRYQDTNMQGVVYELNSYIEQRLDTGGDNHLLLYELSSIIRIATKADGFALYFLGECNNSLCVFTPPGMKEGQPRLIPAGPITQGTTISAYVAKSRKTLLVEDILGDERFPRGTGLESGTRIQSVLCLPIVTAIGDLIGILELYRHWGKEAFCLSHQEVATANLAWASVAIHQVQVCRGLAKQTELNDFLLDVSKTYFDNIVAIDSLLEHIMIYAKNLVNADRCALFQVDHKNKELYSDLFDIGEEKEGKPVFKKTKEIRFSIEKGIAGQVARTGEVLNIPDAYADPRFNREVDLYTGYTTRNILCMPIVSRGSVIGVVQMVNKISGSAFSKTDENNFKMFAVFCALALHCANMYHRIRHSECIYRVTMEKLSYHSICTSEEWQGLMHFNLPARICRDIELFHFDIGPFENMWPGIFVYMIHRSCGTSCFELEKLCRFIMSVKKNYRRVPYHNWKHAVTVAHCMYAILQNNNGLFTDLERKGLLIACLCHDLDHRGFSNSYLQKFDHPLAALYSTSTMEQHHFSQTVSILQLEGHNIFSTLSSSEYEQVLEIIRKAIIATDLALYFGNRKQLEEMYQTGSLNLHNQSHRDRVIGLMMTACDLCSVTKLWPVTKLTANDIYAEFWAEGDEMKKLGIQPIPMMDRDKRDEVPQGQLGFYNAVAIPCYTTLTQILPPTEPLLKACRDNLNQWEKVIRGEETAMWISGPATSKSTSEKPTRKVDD
Protocol: Dose-response or single dose experiments were performed to measure PDE10 occupancy 1 hour after subcutaneous (s.c.) or oral (p.o.) administration. Male Wistar rats (200 g) were treated by s.c. or p.o. administration of various PDE10 inhibitors. The PDE10 radioligand [^3H]-MP-10 (10 μCi/animal) was injected intravenously (i.v.) 30 minutes before sacrifice. Brains were immediately removed from the skull and rapidly frozen. Twenty μm-thick brain sections were cut using a cryostat-microtome, thaw-mounted on microscope slides and loaded in a β-imager to quantify PDE10 occupancy in the striatum.

Chain of PDE8A1 (O60658 whole entry, species assumed): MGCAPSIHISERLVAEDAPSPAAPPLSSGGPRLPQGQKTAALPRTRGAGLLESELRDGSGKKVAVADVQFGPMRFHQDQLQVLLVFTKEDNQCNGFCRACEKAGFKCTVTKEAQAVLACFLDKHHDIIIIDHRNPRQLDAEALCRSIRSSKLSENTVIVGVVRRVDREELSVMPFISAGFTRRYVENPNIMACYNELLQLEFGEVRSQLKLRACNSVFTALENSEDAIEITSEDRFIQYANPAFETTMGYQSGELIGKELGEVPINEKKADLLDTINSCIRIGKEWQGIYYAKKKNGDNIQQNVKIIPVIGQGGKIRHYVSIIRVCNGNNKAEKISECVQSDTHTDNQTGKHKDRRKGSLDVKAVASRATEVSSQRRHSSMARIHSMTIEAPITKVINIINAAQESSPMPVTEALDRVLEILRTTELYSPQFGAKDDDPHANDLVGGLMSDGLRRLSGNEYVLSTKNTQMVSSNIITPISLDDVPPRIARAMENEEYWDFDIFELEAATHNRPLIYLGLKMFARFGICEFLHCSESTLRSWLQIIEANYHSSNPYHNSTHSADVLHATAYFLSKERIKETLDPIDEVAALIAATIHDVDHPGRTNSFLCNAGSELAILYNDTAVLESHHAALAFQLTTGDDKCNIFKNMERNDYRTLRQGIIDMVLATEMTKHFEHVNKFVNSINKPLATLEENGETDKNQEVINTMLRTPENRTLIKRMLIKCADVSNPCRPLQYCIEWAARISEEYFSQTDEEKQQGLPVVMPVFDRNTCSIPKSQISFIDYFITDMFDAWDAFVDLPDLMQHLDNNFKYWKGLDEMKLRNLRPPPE

SMILES: Cc1nc2c(N3CCOCC3)nccn2c1-c1ccc(C2CCOCC2)nc1 [compound 25, 2-Methyl-8-morpholin-4-yl-3-[6-(tetrahydro-pyran-4-yl)-pyridin-3-yl]-imidazo[1,2-a]pyrazine]
- ED50 [1]: 4.1 mg/kg
- pIC50 (PDE8A1): < 4.00
- ED50 [2]: 1.2 mg/kg
- ED50 (PDE10): 4.6 mg/kg
